One test concerns HCT116 MTAP WT cells. Briefly: Proliferation inhibition of HCT116 cells in vitro (CellTiter Glo). In kind it is cell-based. The settings on record: 6 days, 9 concentrations starting from 30 μM, read-out: Cell proliferation inhibition rate HCT116 MTAP WT IC50 (nm). An excerpt:
(§1) Biological Test Example 2 Proliferation Inhibition of HCT116 and HCT116 MTAP-KO Cells in Vitro
(§2) HCT116 cell line was purchased from the Chinese Academy of Sciences Cell Bank, and the MTAP gene was knocked out by CRISPR/Cas9 technology to obtain HCT116-MTAP-KO cell line.
(§3) McCoy's 5A medium (Gibco, catalog No. 16600082), fetal bovine serum (Gibco, catalog No. 10099141C), penicillin-streptomycin double antibody (Gibco, catalog No. 15140122), pancreatic enzyme (Gibco, catalog No. 25200056), CellTiter Glo assay kit (Promega, catalog No. G7572), 384-well transparent flat-bottomed black walled cell culture plate (Corning, catalog No. 3764), ultra micro sampler (Tecan, catalog No.D300e), Multimode reader (Biotek, catalog No. SynergyHTX)
(§4) 1. Cell culture: HCT116 and HCT116-MTAP-KO cells were cultured in McCoy'5A medium+10% fetal bovine serum+1% penicillin-streptomycin double antibody; to ensure that they were always in the logarithmic growth phase and the cell viability greater than 95%.
(§5) 2. Compound concentration gradient preparation: The compound to be tested was added to a 384-well plate using an ultra micro sampler, starting from 30 μM (HCT116 cells) or 3 μM (HCT116-MTAP-KO cells), and diluted with DMSO at 3 times for a total of 9 concentrations and set up three duplicate wells.
(§6) 3. Treatment of cells with compounds: Trypsin-digested HCT116 or HCT116-MTAP-KO cell suspension was added to the 384-well plates spotted with the compounds to be tested at 40 μL per well, i.e., 100 cells per well, and the final concentration of DMSO was 0.4%. The cell culture plate was incubated at 37° C. in a 5% CO2 incubator for 6 days.
(§7) 4. Detection: 20 μL of CellTiter Glo reagent was added to each well of the cell culture plate and incubated at room temperature for 30 minutes. A multimode reader was used to detect the luminescence signal at […].
(§8) The data was fitted with GraphPad Prism 8.0 software using a four parameter inhibitor-reaction model to obtain the IC50 value (half inhibitory concentration) of the test compounds.
A general note: ATP-based viability assays read luminescence as a measure of living cells.

The test system of test [1] is HCT116-MTAP-KO cells (HCT116 MTAP null). Briefly: Proliferation inhibition of HCT116 MTAP-KO cells in vitro (CellTiter Glo). Format: cell-based. The settings on record: 6 days, 9 concentrations starting from 3 μM, read-out: Cell proliferation inhibition rate HCT116 MTAP null IC50 (nm).
Source text: as §1, §2, §3, §4, §5, §6, §7, §8

pIC50: −log10 of the molar value. Like-named read-outs stand apart in the source and are kept apart here. A value given as a limit tells only on which side of the number the result lay.

IC50 data for 21 compounds are collected here from US20250376473A1, “PRMTS INHIBITOR AND USE THEREOF” (Cytosinlab Therapeutics Co., Ltd., priority 2022, published 2025).

Take `Cc1ncc2c(N)nc3cc(F)c(C(=O)N(Cc4ccc(C(F)(F)F)cn4)c4ccn(CCO)n4)cc3n12` [Example 117]: the pIC50 in the test with HCT116 MTAP WT cells (Homo sapiens, HCT-116, 144 h) is 5.00 to 6.00; in test [1] (HCT116-MTAP null, 144 h) it was 6.00 to 7.00.

In the case of `Cc1c(N(Cc2ccc(C(F)(F)F)cn2)C(=O)c2cc3c(cc2F)nc(N)c2cnc(C)n23)cnn1C` [Example 118], the pIC50 in the test on HCT116 MTAP WT cells (Homo sapiens, HCT-116, 144 h) was 5.00 to 6.00; in test [1] (HCT116-MTAP null, 144 h), > 7.00.

For the compound `Cc1ncc2c(N)nc3cc(F)c(C(=O)N(Cc4ccc(C(F)(F)F)nn4)c4cnn(C)c4)cc3n12` [Example 119], the pIC50 in the test with HCT116 MTAP WT cells (Homo sapiens, HCT-116, 144 h) was 5.00 to 6.00; in test [1] (HCT116-MTAP null, 144 h), 6.00 to 7.00.

Turning to `Cc1ncc2c(N)nc3cc(F)c(C(=O)N(Cc4ncc(C(F)(F)F)cc4F)c4cnn(C)c4)cc3n12` [Example 120], the pIC50 is 5.00 to 6.00 with HCT116 MTAP WT cells (Homo sapiens, HCT-116, 144 h) and > 7.00 in test [1] (HCT116-MTAP null, 144 h).

Regarding `Cc1ncn2c1c(N)nc1cc(F)c(C(=O)N(c3cnn(C)c3)C3COc4ccccc43)cc12` (stereo not drawn) [Example 121], the pIC50 in the test on HCT116 MTAP WT cells was 5.00 to 6.00; in test [1], > 7.00.

Turning to `COc1cc(N(Cc2ccc(C(F)(F)F)cn2)C(=O)c2cc3c(cc2F)nc(N)c2cnc(C)n23)nn1C` [Example 122], the pIC50 is 5.00 to 6.00 in the test on HCT116 MTAP WT cells (Homo sapiens, HCT-116, 144 h) and 6.00 to 7.00 in test [1] (HCT116-MTAP null, 144 h).

`COc1ccc(N(Cc2ccc(C(F)(F)F)cn2)C(=O)c2cc3c(cc2F)nc(N)c2cnc(C)n23)cn1` [Example 124]: the pIC50 with HCT116 MTAP WT cells (Homo sapiens, HCT-116, 144 h) is 5.00 to 6.00; in test [1] (HCT116-MTAP null, 144 h), > 7.00.

Regarding `Cc1ncc2c(N)nc3cc(F)c(C(=O)N(c4cnn(C)c4)C4COc5ccccc54)cc3n12` (stereo not drawn) [Example 125], the pIC50 is 5.00 to 6.00 in the test on HCT116 MTAP WT cells and > 7.00 in test [1].

Take `Cc1nn(C)cc1N(Cc1ccc(C(F)(F)F)nn1)C(=O)c1cc2c(cc1F)nc(N)c1cnc(C)n12` [Example 127]: the pIC50 is 5.00 to 6.00 in the test with HCT116 MTAP WT cells (Homo sapiens, HCT-116, 144 h) and 6.00 to 7.00 in test [1] (HCT116-MTAP null, 144 h).

As to `CCn1cc(N(Cc2ccc(C(F)(F)F)cn2)C(=O)c2cc3c(cc2F)nc(N)c2cnc(C)n23)c(C)n1` [Example 129], the pIC50 is 5.00 to 6.00 in the test with HCT116 MTAP WT cells (Homo sapiens, HCT-116, 144 h) and > 7.00 in test [1] (HCT116-MTAP null, 144 h).

Turning to `COc1ccc(CN(C(=O)c2cc3c(cc2F)nc(N)c2cnc(C)n23)c2cn(C)nc2C)nn1` [Example 131], the pIC50 in the test on HCT116 MTAP WT cells (Homo sapiens, HCT-116, 144 h) is 5.00 to 6.00; in test [1] (HCT116-MTAP null, 144 h) it was > 7.00.

Take `Cc1ncc2c(N)nc3cc(F)c(C(=O)N(Cc4ccc(C(F)(F)F)cn4)c4cn(C)nc4CO)cc3n12` [Example 133]: the pIC50 is 5.00 to 6.00 in the test on HCT116 MTAP WT cells (Homo sapiens, HCT-116, 144 h) and 6.00 to 7.00 in test [1] (HCT116-MTAP null, 144 h).

In the case of `Cc1nn(C)cc1N(Cc1ccc(C(F)(F)F)cn1)C(=O)c1cc2c(cc1F)nc(N)c1c(C)ncn12` [Example 134], the pIC50 with HCT116 MTAP WT cells (Homo sapiens, HCT-116, 144 h) is > 7.00; in test [1] (HCT116-MTAP null, 144 h), > 7.00.

On to `CCOc1ccc(CN(C(=O)c2cc3c(cc2F)nc(N)c2cnc(C)n23)c2cn(C)nc2C)nc1` [Example 136], for which the pIC50 with HCT116 MTAP WT cells (Homo sapiens, HCT-116, 144 h) was 5.00 to 6.00; in test [1] (HCT116-MTAP null, 144 h) it was > 7.00.

With `COc1nn(C)cc1N(Cc1ccc(C(F)(F)F)cn1)C(=O)c1cc2c(cc1F)nc(N)c1cnc(C)n12` [Example 138], the pIC50 is 5.00 to 6.00 in the test with HCT116 MTAP WT cells (Homo sapiens, HCT-116, 144 h) and > 7.00 in test [1] (HCT116-MTAP null, 144 h).

`Cc1ccc(N(Cc2ccc(C(F)(F)F)cn2)C(=O)c2cc3c(cc2F)nc(N)c2cnc(C)n23)cn1` [Example 139]: the pIC50 was 5.00 to 6.00 in the test on HCT116 MTAP WT cells (Homo sapiens, HCT-116, 144 h) and > 7.00 in test [1] (HCT116-MTAP null, 144 h).

Consider `Cc1nn(C)cc1N(Cc1ncc(C(F)(F)F)cn1)C(=O)c1cc2c(cc1F)nc(N)c1cnc(C)n12` [Example 140], for which the pIC50 in the test on HCT116 MTAP WT cells (Homo sapiens, HCT-116, 144 h) is 5.00 to 6.00; in test [1] (HCT116-MTAP null, 144 h), 6.00 to 7.00.

In the case of `Cc1ncccc1N(Cc1ccc(C(F)(F)F)cn1)C(=O)c1cc2c(cc1F)nc(N)c1cnc(C)n12` [Example 143, 4-Amino-7-fluoro-1-methyl-N-(2-methylpyridin-3-yl)-N-(5-(trifluoromethyl)pyridin-2-ylmethyl)imidazolo[1,5-a]quinoxalin-8-carboxamide], the pIC50 in the test on HCT116 MTAP WT cells (Homo sapiens, HCT-116, 144 h) was 6.00 to 7.00; in test [1] (HCT116-MTAP null, 144 h), > 7.00.

On to `Cc1nn(C)cc1N(Cc1ccc(OC2CC2)cn1)C(=O)c1cc2c(cc1F)nc(N)c1cnc(C)n12` [Example 144], for which the pIC50 with HCT116 MTAP WT cells (Homo sapiens, HCT-116, 144 h) was 5.00 to 6.00; in test [1] (HCT116-MTAP null, 144 h), > 7.00.

As for `COc1ncccc1N(Cc1ccc(C(F)(F)F)cn1)C(=O)c1cc2c(cc1F)nc(N)c1cnc(C)n12` [Example 145], the pIC50 in the test on HCT116 MTAP WT cells (Homo sapiens, HCT-116, 144 h) is 6.00 to 7.00; in test [1] (HCT116-MTAP null, 144 h) it was > 7.00.

On to `COc1ccc(N(Cc2ccc(OC3CC3)cn2)C(=O)c2cc3c(cc2F)nc(N)c2cnc(C)n23)cn1` [Example 146], for which the pIC50 with HCT116 MTAP WT cells (Homo sapiens, HCT-116, 144 h) is 5.00 to 6.00; in test [1] (HCT116-MTAP null, 144 h), > 7.00.
